# Test results from US7371764B2, “Quinolin-isoquinolin-and quinazolin-oxyalkylamides and their use as fungicides” (priority 2002, dated 2008).
# Where two headings read alike, the source gives them in different places.
# Experiments:
# [1] = tested on: Pythium ultimum; assay: Pythium ultimum (Damping off) growth inhibition in potato dextrose broth, microtiter plate; type: cell-based; conditions: Globisporangium ultimum, 24° C., after 48 hours, read-out: control of fungal infection (inhibition of growth, determined photometrically)
# [2] = tested on: Pyrenophora teres; type: in vivo; conditions: 200 ppm
# [3] = tested on: Septoria nodorum; type: in vivo; conditions: 200 ppm
# [4] = tested on: Puccinia recondita f.sp. tritici; type: in vivo; conditions: 200 ppm
smiles,measurement,setting,value
"CC#CC(C)(C)NC(=O)C(COC)Oc1ccc2ncccc2c1 (centres unmarked) [2(11), 2-(6-quinolinyloxy)-N-(2-methylpent-3-yn-2-yl)-3-methoxypropionamide]",inhibition at 20 ppm,[1]; potato dextrose broth,> 60%
"CC#CC(C)(C)NC(=O)C(CC)Oc1ccc2ncncc2c1 (centres unmarked) [2(20), 2-(6-quinazolinoxy)-N-(4-methylpent-2-yn-4-yl) butyramide]",control of fungal infection (preventive fungicidal activity),[2],more than 60%
"CC#CC(C)(C)NC(=O)C(COC)Oc1ccc2ccncc2c1 (centres unmarked) [2(49), 2-(7-isoquinolinyloxy)-N-(2-methylpent-3-yn-2-yl)-3-methoxypropionamide]",melting point,,155 to 156 °C
same,inhibition at 20 ppm,[1]; potato dextrose broth,> 60%
"CCC(Oc1ccc2ncccc2c1)C(=O)NC(C)(C)C#CCO (centres unmarked) [10(1), 2-(6-quinolinyloxy)-N-(1-hydroxy-4-methylpent-2-yn-4-yl) butyramide]",control of fungal infection (preventive fungicidal activity),[3],more than 60%
"CCC(Oc1ccc2ncccc2c1)C(=O)NC(C)(C)C#CCOC (centres unmarked) [12(1), 2-(6-quinolinyloxy)-N-(1-methoxy-4-methylpent-2-yn-4-yl)butyramide]",inhibition at 20 ppm,[1],> 60%
"CCC(Oc1ccc2ncccc2c1)C(=O)NC(C)(C)C#CCO[Si](C)(C)C(C)(C)C (centres unmarked) [50(1), 2-(6-quinolinyloxy)-N-(1-tert-butyldi-methylsilyloxy-4-methylpent-2-yn-4-yl)butyramide]",inhibition at 20 ppm,[1],> 60%
"CCC(Oc1ccc2ncc(Br)cc2c1)C(=O)NC(C)(C)C#CCCCC#N (centres unmarked) [90(77), 2-(3-bromo-6-quinolinyloxy)-N-(1-cyano-6-methylhept-4-yn-6-yl) butyramide]",control of fungal infection (preventive fungicidal activity),[4],more than 60%
